Data published in article PMC11091889, “Silver Organometallics that are Highly Potent Thioredoxin and Glutathione Reductase Inhibitors: Exploring the Correlations of Solution Chemistry with the Strong Antibacterial Effects” (ACS Infectious Diseases, 2024).

Experiments:
[1] = Conductometry: molar conductivity of silver complexes in DMSO; assay type: physicochemical; conditions: 1.0 mM in DMSO, calculated as monocarbene (NHC)AgX
How it was run: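 Molar conductivity of each silver complex was measured at 1.0 mM in freshly distilled DMSO (specific conductivity ≤3 × 10^–8 S cm^–1) using an Apera Instruments EC9500 conductivity meter at 25 ± 2 °C. AgNO3 served as the 1:1 electrolyte reference, and readings were taken after dissolution to distinguish neutral monocarbene from ionic biscarbene forms.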

[2] = target: T1, glutathione reductase (GR) from baker's yeast (Saccharomyces cerevisiae, UniProt P41921); test: GR inhibition assay (DTNB reduction); assay type: biochemical; conditions: ± standard deviation, n = 3, 75 min preincubation
T1 construct: purchased Sigma-Aldrich
T1 sequence (P41921 17-483 limits assumed): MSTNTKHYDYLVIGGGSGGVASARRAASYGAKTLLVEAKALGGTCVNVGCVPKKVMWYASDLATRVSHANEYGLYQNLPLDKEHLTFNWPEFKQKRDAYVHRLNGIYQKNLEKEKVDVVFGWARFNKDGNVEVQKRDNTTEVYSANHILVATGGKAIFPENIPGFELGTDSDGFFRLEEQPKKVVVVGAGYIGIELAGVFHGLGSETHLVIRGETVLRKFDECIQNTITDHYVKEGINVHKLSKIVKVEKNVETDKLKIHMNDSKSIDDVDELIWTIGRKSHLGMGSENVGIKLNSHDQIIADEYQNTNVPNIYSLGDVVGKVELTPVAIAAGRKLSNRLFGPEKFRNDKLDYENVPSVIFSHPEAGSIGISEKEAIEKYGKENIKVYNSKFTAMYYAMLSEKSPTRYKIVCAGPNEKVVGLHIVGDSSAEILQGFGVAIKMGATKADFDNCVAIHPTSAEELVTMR
Experimental: (§2) The inhibition of purified E. coli thioredoxin reductase (TrxR) and glutathione reductase (GR) from both E. coli and baker’s yeast was determined according to a previously applied procedure.[59],[60]
(§3) The TrxR (E. coli) and GR (baker’s yeast and E. coli) inhibition assays were performed according to previously published procedures.[62],[75] The assays are partly based on the procedure developed by Lu et al.[60] and make use of the reduction of 5,5′-dithiobis(2-nitrobenzoic acid) (DTNB). Solutions of E. coli TrxR (35.4 U/mL) and E. coli thioredoxin (Trx) (156 μg/mL) (both purchased from Sigma-Aldrich) or baker’s yeast GR (0,08 U/mL, Sigma-Aldrich) or E. coli GR (4.2 U/ml, Antibodies online) and GSSG (0.28 mM, Sigma-Aldrich) in distilled water were prepared, as were fresh 2 mM stock solutions of the test compounds in DMSO. Then, solutions with several concentrations of the test compounds in DMSO were prepared, and 35 μL of each solution was diluted with 965 μL of TE buffer (Tris–HCl 50 mM, EDTA 1 mM, pH 7.5). These solutions (20 μL) or TE buffer without the test compounds (20 μL, as control) were mixed with the TrxR or GR solutions (10 μL), the Trx or GSSG solutions (10 μL), and a solution of NADPH (200 μM) in TE buffer (100 μL) in a well on a 96-well plate. As a blank solution, 200 μM NADPH in TE buffer (100 μL) mixed with a DMSO/buffer mixture (40 μL) was used (final concentrations of DMSO: 0.5% v/v). The plate was incubated for 75 min at 25 °C with moderate shaking. After incubation, 100 μL of a reaction mixture (TE buffer containing 200 μM NADPH and 5 mM DTNB) was added to each well to initiate the reaction. After thorough mixing, the formation of 5-TNB was monitored by a microplate reader at 405 nm in 35 s intervals (10 measurements). The values were corrected by subtraction of the blank solution absorption values. The increase in the concentration of 5-TNB followed a linear trend (r^2 ≥ 0.990), and the enzymatic activities were calculated as the gradients (increase in absorbance per second) thereof. […] The inhibition is presented as the mean IC50 values and standard deviations obtained in three independent experiments.

[3] = system: K. pneumoniae (DSM 11678, ATCC33495); test: Broth microdilution antibacterial assay; assay type: cell-based, Klebsiella pneumoniae; conditions: n = 3, MHB
How it was run: (§1)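 Broth microdilution used 2–8 × 10^5 CFU/mL inocula, with compounds serially diluted 64 to 1 μg/mL and incubated 22 h at 37 °C, read at 600 nm. A. baumannii, K. pneumoniae and P. aeruginosa were grown in MHB pH 7.4; E. faecium was grown in TSY pH 7.0–7.2. MIC and EC50 were obtained by curve fitting from three independent experiments.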

[4] = system: S. aureus MRSA (DSM 11822, ICB 25701); test: microbe, parasite or virus in culture; assay type: cell-based, methicillin resistant S. aureus; conditions: n = 3, TSY
How it was run: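 Broth microdilution in TSY (30 g/L trypticase soy broth, 3 g/L yeast extract, pH 7.0–7.2), inoculum 2–8 × 10^5 CFU/mL, compounds serially diluted 64 to 1 μg/mL, 22 h at 37 °C. Growth read as absorbance at 600 nm; MIC and EC50 obtained by curve fitting, three independent experiments.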

[5] = target: E. coli thioredoxin reductase (TrxR) (Escherichia coli, UniProt P0A9P4); conditions: read-out: IC50 TrxR from E. coli; ± standard deviation, n = 3, 75 min preincubation
E. coli thioredoxin reductase (TrxR), sequence (P0A9P4 whole entry): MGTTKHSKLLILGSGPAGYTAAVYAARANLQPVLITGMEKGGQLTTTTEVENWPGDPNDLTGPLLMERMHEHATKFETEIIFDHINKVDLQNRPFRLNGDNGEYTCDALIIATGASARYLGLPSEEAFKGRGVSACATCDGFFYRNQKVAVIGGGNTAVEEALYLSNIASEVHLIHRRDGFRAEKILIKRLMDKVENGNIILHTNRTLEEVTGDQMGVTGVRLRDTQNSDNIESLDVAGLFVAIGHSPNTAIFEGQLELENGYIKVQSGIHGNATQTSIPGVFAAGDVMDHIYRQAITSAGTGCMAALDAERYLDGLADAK
Experimental: as §2, §3

[6] = system: P. aeruginosa PA7 (DSM 24068); test: microbe, parasite or virus in culture; assay type: cell-based, Pseudomonas aeruginosa; conditions: n = 3, MHB
How it was run: as §1

[7] = system: E. coli (DSM1116, ATCC 9637); test: microbe, parasite or virus in culture; assay type: cell-based, Escherichia coli
How it was run: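 Escherichia coli DSM1116 (ATCC 9637) was tested by broth microdilution in 96-well plates in duplicate, with compounds serially diluted from 64 to 1 μg/mL. Inocula of 2–8 × 10^5 CFU/mL were used in MHB (21 g/L Müller Hinton broth, pH 7.4), either alone or supplemented with tryptone (17 g/L) or yeast extract (3 g/L). After 22 h at 37 °C, absorbance at 600 nm was read. MIC and EC50 were obtained by curve fitting in Sigma Plot from three independent experiments, and ciprofloxacin served as the positive control.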

[8] = target: T2, glutathione reductase (GR) from E. coli (Escherichia coli, UniProt P06715); test: GR inhibition assay (DTNB reduction); assay type: biochemical; conditions: ± standard deviation, n = 3, 75 min preincubation
T2 construct: purchased Antibodies online
T2 sequence (P06715 1-450): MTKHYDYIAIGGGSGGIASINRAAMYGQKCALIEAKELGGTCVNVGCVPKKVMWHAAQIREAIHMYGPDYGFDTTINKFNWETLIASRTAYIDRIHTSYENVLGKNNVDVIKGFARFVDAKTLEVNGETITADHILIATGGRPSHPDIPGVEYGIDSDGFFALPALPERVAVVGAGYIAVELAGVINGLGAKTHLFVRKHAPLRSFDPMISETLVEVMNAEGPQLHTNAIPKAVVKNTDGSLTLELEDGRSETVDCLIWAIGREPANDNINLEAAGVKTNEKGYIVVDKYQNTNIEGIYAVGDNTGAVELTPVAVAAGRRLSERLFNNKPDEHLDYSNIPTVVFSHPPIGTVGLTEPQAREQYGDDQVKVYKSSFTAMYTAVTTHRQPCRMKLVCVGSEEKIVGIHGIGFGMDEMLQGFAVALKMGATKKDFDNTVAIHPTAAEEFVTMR
Experimental: as §2, §3

[9] = system: E. faecium (DSM 20477, ATCC 19434); test: Broth microdilution antibacterial assay; assay type: cell-based, Enterococcus faecium; conditions: n = 3, TSY
How it was run: as §1

[10] = system: A. baumannii (DSM 30007, ATCC 19606); test: Broth microdilution antibacterial assay; assay type: cell-based, Acinetobacter baumannii; conditions: n = 3, MHB
How it was run: as §1

O=[N+]([O-])[O-].[Ag+] [AgNO3, Silver nitrate, reference compound]
Molar conductivity ΛM ([1]; 1 h after dissolution): 37.8 S cm^2 mol^–^1 | Molar conductivity ΛM ([1]; 24 h after dissolution): 38.1 S cm^2 mol^–^1 | IC50 [2]: 0.033 ± 0.003 µM | MIC K. pneumoniae ([3]; mean ± standard error, 22 h): 5.9 ± 0.0 µM | EC50 ([3]; mean ± standard error, read-out: EC50 K. pneumoniae): 4.41 ± 0.5 µM | MIC K. pneumoniae (value in brackets) ([3]; 22 h): 1 µg/mL | MIC MRSA ([4]; mean ± standard error, 22 h): 188 ± 0.0 µM | EC50 ([4]; mean ± standard error, read-out: EC50 MRSA): 98.9 ± 6.4 µM | MIC MRSA (value in brackets) ([4]; 22 h): 32 µg/mL | IC50 [5]: 0.054 ± 0.005 µM | MIC P. aeruginosa ([6]; mean ± standard error, 22 h): 5.9 ± 0.0 µM | EC50 ([6]; mean ± standard error, read-out: EC50 P. aeruginosa): 4.12 ± 0.4 µM | MIC P. aeruginosa (value in brackets) ([6]; 22 h): 1 µg/mL | MIC E. coli DSM 1116 in MHB + tryptone ([7]; Müller-Hinton Broth with tryptone (17 g/L), ± SE): 251.1 ± 62.8 µM | MIC E. coli DSM 1116 in MHB + yeast extract ([7]; Müller-Hinton Broth with yeast extract (3 g/L), ± SE): 123.6 ± 29.4 µM | MIC E. coli DSM 1116 in MHB ([7]; Müller-Hinton Broth without additive, ± SE): 5.89 ± 0.0 µM | EC50 ([7]; mean ± standard error, n = 3, MHB): 4.87 ± 0.1 µM | MIC E. coli ([7]; mean ± standard error, n = 3, MHB, 22 h): 5.9 ± 0.0 µM | MIC E. coli (value in brackets) ([7]; n = 3, MHB, 22 h): 1 µg/mL | IC50 [8]: 0.031 ± 0.001 µM | MIC E. faecium ([9]; mean ± standard error, 22 h): 94.1 ± 0.0 µM | EC50 ([9]; mean ± standard error, read-out: EC50 E. faecium): 75.9 ± 5.7 µM | MIC E. faecium (value in brackets) ([9]; 22 h): 16 µg/mL | MIC A. baumannii ([10]; mean ± standard error, 22 h): 5.9 ± 0.0 µM | EC50 ([10]; mean ± standard error, read-out: EC50 A. baumannii): 4.16 ± 0.4 µM | MIC A. baumannii (value in brackets) ([10]; 22 h): 1 µg/mL
